# Data reported in patent publication US11214803B2, “Modulators of YAP1 expression” (Ionis Pharmaceuticals, Inc., priority 2019, dated 2022).
# Strand notation (5' to 3'): a small letter for the sugar, then the base; units joined by * are phosphorothioate-linked, units joined directly phosphodiester-linked; [ ] holds rarer units or linkages, { } end groups; capitals alone tell only the bases. k = constrained ethyl (cEt); [5mC] = 5-methylcytosine; d = 2'-deoxy (DNA)
# Tested on: Yap1 mRNA
# Assay: Antisense inhibition of human Yap1 in A-431 cells by cEt gapmers, single dose (Example 3, RTS36584)
# Assay type: cell-based
# Method in brief: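 Read-out is Yap1 mRNA as percent of untreated control, by quantitative RT-PCR normalized to total RNA (RiboGreen). Cells (A-431) received 2,000 nM of 3-10-3 cEt phosphorothioate gapmer via free uptake for roughly 48 hours.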
# [1] = Table 10, A-431 cells, 5,000 cells per well, free uptake, 2,000 nM oligonucleotide, approx. 48 hours, primer probe set RTS36584, Yap1 mRNA normalized to RIBOGREEN, percent of untreated control
# [2] = Table 11, A-431 cells, 5,000 cells per well, free uptake, 2,000 nM oligonucleotide, approx. 48 hours, primer probe set RTS36584, Yap1 mRNA normalized to RIBOGREEN, percent of untreated control
# [3] = Table 12, A-431 cells, 5,000 cells per well, free uptake, 2,000 nM modified oligonucleotide, approx. 48 hours, RTS36584, normalized to RIBOGREEN, Yap1 mRNA relative to untreated control cells
# [4] = Table 35, Yap1 mRNA as percent of untreated control, 3-10-3 cEt gapmers targeting SEQ ID NO: 1 and 2, single dose
# [5] = Table 13, A-431 cells, 5,000 cells per well, free uptake, 2,000 nM modified oligonucleotide, approx. 48 hours, RTS36584, normalized to RIBOGREEN, Yap1 mRNA relative to untreated control cells
# [6] = Table 29, Yap1 mRNA as percent of untreated control, 3-10-3 cEt gapmers targeting SEQ ID NO.: 1, and 2
# [7] = Table 27, Yap1 mRNA by 3-10-3 cEt gapmers targeting SEQ ID NO.: 1, and 2, percent of untreated control
# [8] = Table 8, A-431 cells, 5,000 cells per well, free uptake, 2,000 nM, approximately 48 hours, RTS36584, normalized to RIBOGREEN, Yap1 mRNA relative to untreated control cells
# [9] = Table 28, Yap1 mRNA as percent of untreated control, 3-10-3 cEt gapmers targeting SEQ ID NO.: 1, and 2
# [10] = Table 26, Yap1 mRNA by 3-10-3 cEt gapmers targeting SEQ ID NO.: 1, and 2, percent of untreated control
substance,measurement,setting,value
958467 (antisense kG*kG*kT*dG*dG*d[5mC]*dA*dG*d[5mC]*d[5mC]*dA*dA*dA*kA*k[5mC]*kA) [Compound 958467],YAP1 (% UTC),[1],32 % UTC
958638 (antisense kG*kT*kG*d[5mC]*dG*dG*dA*dG*d[5mC]*dG*d[5mC]*dG*d[5mC]*kG*kG*kA) [Compound 958638],YAP1 (% UTC),[2],127 % UTC
958724 (antisense kT*k[5mC]*kA*dG*dT*dT*dA*dT*d[5mC]*d[5mC]*dT*dA*dT*k[5mC]*k[5mC]*k[5mC]) [Compound 958724],YAP1 (% UTC),[3],2 % UTC
1075509 (k[5mC]*kA*kT*dA*dA*dT*d[5mC]*d[5mC]*d[5mC]*dT*dG*dA*d[5mC]*kT*kT*kG; antisense) [compound 1075509],YAP1 (% UTC),[4],81 % UTC
958734 (antisense kA*k[5mC]*kA*d[5mC]*dA*dT*dA*dG*dA*dG*d[5mC]*dT*dA*kA*kG*kG) [Compound 958734],YAP1 (% UTC),[3],7 % UTC
958505 (kG*kA*kT*dA*dA*dT*d[5mC]*dG*dA*dG*dA*dT*dT*kT*kA*kA; antisense) [Compound 958505],YAP1 (% UTC),[5],6 % UTC
958598 (k[5mC]*k[5mC]*k[5mC]*dA*dA*dT*dG*d[5mC]*dT*dA*d[5mC]*d[5mC]*d[5mC]*kA*kA*kT; antisense) [Compound 958598],YAP1 (% UTC),[2],4 % UTC
958725 (antisense kG*kT*k[5mC]*dA*dG*dT*dT*dA*dT*d[5mC]*d[5mC]*dT*dA*kT*k[5mC]*k[5mC]) [Compound 958725],YAP1 (% UTC),[5],1 % UTC
1074831 (k[5mC]*kG*kA*dG*dG*dA*dT*dA*dA*dA*dA*dT*d[5mC]*k[5mC]*kA*k[5mC]; antisense) [compound 1074831],YAP1 (% UTC),[6],35 % UTC
1075533 (kG*kA*kT*dT*dA*d[5mC]*dT*d[5mC]*dA*dG*d[5mC]*dT*dA*kT*kG*kT; antisense) [compound 1075533],YAP1 (% UTC),[7],65 % UTC
1074765 (k[5mC]*kA*kA*dT*dG*d[5mC]*dT*dA*d[5mC]*d[5mC]*d[5mC]*dA*dA*kT*kA*k[5mC]; antisense) [compound 1074765],YAP1 (% UTC),[7],34 % UTC
958504 (kA*kT*k[5mC]*dG*dA*dG*dA*dT*dT*dT*dA*dA*dA*kT*kA*kA; antisense) [Compound 958504],YAP1 (% UTC),[3],63 % UTC
958664 (kA*k[5mC]*kG*dA*dA*d[5mC]*dT*dA*dA*dG*dG*dT*dG*kT*kA*k[5mC]; antisense) [Compound 958664],YAP1 (% UTC),[3],40 % UTC
958523 (kT*kT*k[5mC]*d[5mC]*dA*dA*dT*d[5mC]*dG*dA*dG*dA*d[5mC]*kT*kT*kA; antisense) [Compound 958523],YAP1 (% UTC),[2],3 % UTC
958530 (kG*kA*kG*d[5mC]*dA*dA*dG*dT*d[5mC]*dT*dT*dG*dT*kA*kA*kG; antisense) [Compound 958530],YAP1 (% UTC),[5],20 % UTC
958748 (antisense kA*k[5mC]*kA*dT*dG*dT*dG*dA*d[5mC]*dA*dT*dT*d[5mC]*k[5mC]*kG*kG) [Compound 958748],YAP1 (% UTC),[2],83 % UTC
958363 (antisense kT*kG*kA*dG*d[5mC]*dT*d[5mC]*dG*dA*dA*d[5mC]*dA*dT*kG*k[5mC]*kT) [Compound 958363],YAP1 (% UTC),[8],70 % UTC
1076238 (kG*kA*kT*dG*dA*dA*dT*dA*dG*d[5mC]*dT*dA*dA*kG*kA*kA; antisense) [compound 1076238],YAP1 (% UTC),[9],30 % UTC
958755 (antisense kT*kA*kA*d[5mC]*dA*dT*dA*dA*dG*dA*d[5mC]*dA*d[5mC]*kG*kG*kA) [Compound 958755],YAP1 (% UTC),[5],12 % UTC
958768 (antisense kG*kT*kG*d[5mC]*dA*dA*dG*d[5mC]*dA*dG*dG*dT*dT*k[5mC]*k[5mC]*k[5mC]) [Compound 958768],YAP1 (% UTC),[2],17 % UTC
1074253 (antisense kT*k[5mC]*kT*dG*dG*dG*dA*d[5mC]*dA*dG*d[5mC]*dA*dT*kG*kG*k[5mC]) [compound 1074253],YAP1 (% UTC),[7],11 % UTC
958509 (kA*kT*kG*dT*dT*dA*dT*dG*dT*dT*dT*dG*dG*kG*kT*kG; antisense) [Compound 958509],YAP1 (% UTC),[3],4 % UTC
958731 (antisense kG*k[5mC]*kT*d[5mC]*dT*dG*dT*d[5mC]*dA*dG*dT*dT*dA*kT*k[5mC]*k[5mC]) [Compound 958731],YAP1 (% UTC),"Table 9, A-431 cells, 5,000 cells per well, free uptake, 2,000 nM, approximately 48 hours, RTS36584, normalized to RIBOGREEN, Yap1 mRNA relative to untreated control cells",7 % UTC
958697 (antisense k[5mC]*kT*kA*dA*dA*dG*dA*dT*dG*dA*d[5mC]*dT*dA*k[5mC]*kT*kG) [Compound 958697],YAP1 (% UTC),[1],39 % UTC
1076492 (kA*kA*kA*dA*dG*dA*dT*dA*d[5mC]*d[5mC]*d[5mC]*d[5mC]*d[5mC]*kA*kG*kT; antisense) [compound 1076492],YAP1 (% UTC),[10],47 % UTC
1075660 (antisense k[5mC]*kA*kA*dA*dG*dT*dA*dA*dA*dA*dA*dA*d[5mC]*kG*kG*kT) [compound 1075660],YAP1 (% UTC),[10],72 % UTC
958490 (kG*kT*kG*dA*d[5mC]*dA*dT*dG*dA*dA*dG*d[5mC]*dA*kT*k[5mC]*kT; antisense) [Compound 958490],YAP1 (% UTC),[5],5 % UTC
958405 (antisense kT*kT*kA*dT*dG*dG*dG*dA*dT*dG*dA*dG*dT*kG*k[5mC]*kT) [Compound 958405],YAP1 (% UTC),[8],24 % UTC
958588 (kG*kT*kG*dT*dA*d[5mC]*dT*dT*dA*dG*dG*dT*dG*kA*k[5mC]*kT; antisense) [Compound 958588],YAP1 (% UTC),[2],10 % UTC
958648 (kG*kA*kA*dT*dA*d[5mC]*dT*dG*dA*dG*dT*d[5mC]*dA*kG*kG*kA; antisense) [Compound 958648],YAP1 (% UTC),[2],7 % UTC
958808 (kA*kG*k[5mC]*dG*dA*dT*dT*dG*dG*d[5mC]*d[5mC]*dT*d[5mC]*k[5mC]*k[5mC]*kA; antisense) [Compound 958808],YAP1 (% UTC),[2],59 % UTC
1076044 (kA*kT*k[5mC]*dA*dA*dA*dA*dA*dG*dG*d[5mC]*dT*dA*kT*kT*kG; antisense) [compound 1076044],YAP1 (% UTC),[10],73 % UTC
1075950 (antisense kT*kG*kA*d[5mC]*dA*dA*dT*dA*d[5mC]*d[5mC]*dT*dT*d[5mC]*k[5mC]*kT*kA) [compound 1075950],YAP1 (% UTC),[9],30 % UTC
958534 (kT*kT*k[5mC]*dA*dG*d[5mC]*dA*dT*dA*dG*dA*dA*dG*kT*kA*kG; antisense) [Compound 958534],YAP1 (% UTC),[3],3 % UTC
958773 (antisense kA*kG*k[5mC]*dT*dG*dG*dT*dA*dG*dG*dG*d[5mC]*dA*kA*kG*kA) [Compound 958773],YAP1 (% UTC),[2],43 % UTC
1075820 (kT*k[5mC]*kT*dG*dA*dA*d[5mC]*dG*dG*dG*d[5mC]*dT*dG*kT*kT*kG; antisense) [compound 1075820],YAP1 (% UTC),[10],27 % UTC
958634 (antisense kT*k[5mC]*k[5mC]*dT*dT*dA*dA*d[5mC]*d[5mC]*d[5mC]*dG*dG*dG*kT*kT*kT) [Compound 958634],YAP1 (% UTC),[3],61 % UTC
958391 (antisense kA*kG*k[5mC]*dG*dA*dA*dG*dG*dT*dG*d[5mC]*dG*dG*kA*kG*k[5mC]) [Compound 958391],YAP1 (% UTC),[8],102 % UTC
1075503 (kG*k[5mC]*kT*dG*dA*dA*dA*dA*dA*dG*dG*dG*d[5mC]*kT*kT*kA; antisense) [compound 1075503],YAP1 (% UTC),[6],66 % UTC
1076404 (antisense kT*kA*kT*dT*dT*dA*dA*dG*dA*d[5mC]*d[5mC]*dT*dG*kG*kT*kG) [compound 1076404],YAP1 (% UTC),"Table 34, Yap1 mRNA as percent of untreated control, 3-10-3 cEt gapmers targeting SEQ ID NO: 1 and 2, single dose",13 % UTC
1075119 (kA*kG*kG*dG*dA*dA*dT*dA*dT*dG*dT*dT*dA*kA*kT*k[5mC]; antisense) [compound 1075119],YAP1 (% UTC),[6],8 % UTC
1074741 (kA*kA*kG*dG*dA*d[5mC]*dT*d[5mC]*dT*dT*dA*dG*dG*kT*k[5mC]*kT; antisense) [compound 1074741],YAP1 (% UTC),[4],78 % UTC
958373 (antisense kA*kG*kG*dT*dG*d[5mC]*dT*dA*dG*d[5mC]*dT*dG*dG*kT*kG*k[5mC]) [Compound 958373],YAP1 (% UTC),[8],8 % UTC
958628 (antisense kG*k[5mC]*kT*dA*dA*d[5mC]*dT*dA*d[5mC]*dA*dT*dT*dG*k[5mC]*kA*kG) [Compound 958628],YAP1 (% UTC),[2],81 % UTC
1074671 (antisense k[5mC]*kA*kA*dG*dT*dA*dG*d[5mC]*dT*dT*dT*dG*dA*kT*k[5mC]*kT) [compound 1074671],YAP1 (% UTC),[6],8 % UTC
958669 (kG*k[5mC]*kT*dA*dT*d[5mC]*dT*dT*dT*dG*dG*dA*dT*k[5mC]*k[5mC]*kA; antisense) [Compound 958669],YAP1 (% UTC),[3],76 % UTC
958704 (antisense k[5mC]*k[5mC]*k[5mC]*dT*dA*d[5mC]*dA*d[5mC]*dT*d[5mC]*dG*dA*dG*kG*kA*kT) [Compound 958704],YAP1 (% UTC),[3],122 % UTC
